According to patent US20260083859A1, “SUSTAINED TRANSGENE EXPRESSION OF MODIFIED ERT2 PEPTIDE-SUICIDE PROTEIN FUSION POLYPEPTIDES” (Senti Biosciences, Inc., priority 2023, published 2026):

How the values were obtained:
iPSC clones = experiment: Apoptotic efficacy in individual construct clones treated with 4-OHT, Endoxifen or combinations; format: cell-based, human; conditions: clone Construct 1 c.165
Description: Next, individual clones that were determined to be suitable for further assessments were evaluated for 24 hours in the presence of 4-OHT at two different concentrations.
Individual Construct 1-4 clones were also assessed for their responses to another tamoxifen metabolite, Endoxifen. Clones were evaluated for 24 hours in the presence of Endoxifen at three different concentrations.
Tamoxifen is a prodrug that is broken down into its active metabolites in vivo. To model predicted drug concentrations in a patient, the clone Construct 1 c.165 was treated with various combinations of 4-OHT and Endoxifen, wherein 1.25 nM Endoxifen was combined with a concentration of 4-OHT ranging between 0.125 nM to 1 nM (FIG. 12A). […] In the next evaluation, 0.125 nM 4-OHT was combined with either 0.625 or 1.25 nM Endoxifen (FIG. 12B).

iPSCs = experiment: Apoptosis induction in transfected iPSCs monitored by microscopy and Incucyte tracking; format: cell-based, human; conditions: unedited control cells, 1 nM 4-OHT, up to two days
human iPSCs = experiment: Conventional PCR (agarose gel) of knock-in iPSC pools, with or without 4-OHT; format: cell-based; conditions: iPSC pools treated with 1 nM 4-OHT
Description: Modified ERT2 peptide-suicide protein fusion polypeptide encoding constructs were delivered to human iPSCs via Nucleofection with a GAPDH targeting ribonucleoprotein (RNP) complex comprising of Cpf1 endonuclease and a single guide RNA (sgRNA) targeting the coding sequence of the GAPDH gene. The sgRNA comprised a sequence 5′ […] 3′ (SEQ ID NO: 60). Briefly, iPSCs were cultured in Essential 8 (E8) medium and maintained at 37° C. at 5% CO2 level between passages. Passages were done at 75 to 80% confluency. On the day of Nucleofection, iPSCs were thawed and immediately Nucleofected in Lonza P3 Primary Cell Nucleofection buffer. 7.5 μg of each plasmid construct (BRC00058-61) were Nucleofected into iPSCs using GAPDH Cpf1 RNP with LONZA 4D Nucleofector. The Nucleofected cells were then plated at 50,000 cells/cm^2 per well of a 6-well plate and grown in E8 medium (plus Rock inhibitor Y-27632 from Tocris) for 72 to 96 hours. Knock-in pools were screened for integration 7d post-Nucleofection using ddPCR, as well as conventional PCR.

[1] = tested on: PSC-derived dopaminergic neurons; experiment: Apoptosis in PSC-derived dopaminergic neurons (Example 9); format: cell-based; conditions: neurons from PSCs engineered with Table 3 constructs; 1, 5, 50 or 100 nM 4-OHT, or 5, 10, 50 or 100 nM Endoxifen
Description: To validate conservation of kill switch function after PSCs are differentiated to dopaminergic neurons, PSCs engineered to incorporate the modified ERT2 peptide-suicide protein fusion constructs outlined in Table 3 are differentiated into dopaminergic neurons. Thereafter PSC-derived dopaminergic neurons are treated with Endoxifen, 4-OHT or media alone and tested for incorporation of the modified ERT2 peptide-suicide protein fusion polypeptide construct in the STEL site.
To test function of the modified ERT2 peptide-suicide protein fusion polypeptides in PSC-derived dopaminergic neurons, dopaminergic neurons are cultured, then treated with either lnM, 5 nM, 50 nM, or 100 nM 4-OHT; or 5 nM, 10 nM, 50 nM, or 100 nM Endoxifen, before assessment of apoptosis.

[2] = tested on: PSC-derived microglial precursor cells or myeloid progenitor cells; experiment: Apoptosis in PSC-derived microglial precursor cells or myeloid progenitor cells (Example 8); format: cell-based; conditions: cells from PSCs engineered with Table 3 constructs; 1, 5, 50 or 100 nM 4-OHT, or 5, 10, 50 or 100 nM Endoxifen
Description: To validate conservation of kill switch function after PSCs are differentiated to precursor cells or myeloid progenitor cells, PSCs engineered to incorporate the modified ERT2 peptide-suicide protein fusion polypeptide constructs outlined in Table 3 were differentiated into microglial precursor cells or myeloid progenitor cells. Thereafter PSC-derived microglial precursor cells or myeloid progenitor cells are treated with Endoxifen, 4-OHT or media alone and tested for incorporation of the modified ERT2 peptide-suicide protein fusion polypeptide in the STEL site.
To test function of the modified ERT2 peptide-suicide protein fusion polypeptide constructs in PSC-derived microglial precursor cells or myeloid progenitor cells, cells are cultured, then treated with either lnM, 5 nM, 50 nM, or 100 nM 4-OHT, or 5 nM, 10 nM, 50 nM, or 100 nM Endoxifen, before assessment of apoptosis.

[3] = tested on: PSC-derived myeloid progenitor cells; experiment: TamCasp9 Safety Switch activation in PSC-derived myeloid progenitor cells, AOPI staining, Incucyte SX5; format: cell-based, human; conditions: unedited differentiated myeloid progenitors, combination 4-OHT and Endoxifen treatment
Description: A hPSC line engineered with TamCasp9 Construct 1 and an unedited parental control hPSC line were differentiated into myeloid progenitor cells through the addition of various growth factors and small molecules. Differentiated cells were plated at 1×10^5 cells/cm^2 in an ultra-low attachment cell culture plate for further myeloid cell maturation. After 7 days in maturation medium, cells were collected and frozen down.
For testing of TamCasp9 Safety Switch activation, myeloid cells were plated at 1.5×10^5 cells/cm^2 in a 96-well tissue culture plate with a 1:750 dilution of ViaStain AOPI Staining Solution (Nexcelom) in X-VIVO 15 Medium with 10 ng/mL GM-CSF. The kill switch was induced with 0, 1, 10 or 100 uM of Endoxifen over 3 days and images were collected every 6 hours on the Incucyte SX5 (Sartorius).
To better model predicted drug concentrations in a patient by testing activation of the kill switch against a range of tamoxifen metabolites, the PSC clone Construct 1 c.165, engineered to incorporate an exemplary modified ERT2 peptide-suicide protein fusion polypeptide construct (Table 3), was differentiated to myeloid progenitor cells as depicted in FIG. 13A. Differentiated cells were plated at 1×10^5 cells/cm^2 in an ultra-low attachment cell culture plate for further myeloid cell maturation. After 7 days in maturation medium, cells were collected and frozen down. For testing of TamCasp9 Safety Switch activation, myeloid cells were plated at 1.0×10^5 cells/cm^2 in a 96-well tissue culture plate with a 1:750 dilution of ViaStain AOPI Staining Solution (Nexcelom) in X-VIVO 15 Medium with 10 ng/mL GM-CSF. The kill switch was induced with varying concentrations of combination 4-OHT and Endoxifen treatment over 4 days and images were collected every 4 hours on the Incucyte SX5, with 12 hour timepoints plotted on a graph (Sartorius) (FIG. 14). Either 2.5 nM or 5 nM of Endoxifen was tested in combination with either 0.5 nM, 1 nM or 10 nM of 4-OHT. 100 nM Endoxifen was added as positive killing control as per FIG. 13E.

## 4-hydroxytamoxifen [Construct 4-OHT]
iPSC clones
  lowest effective concentration in 4-OHT-Endoxifen combination: 0.125 nM
iPSCs
  cell growth and density: no detectable effect on cell health and growth
Human iPSCs
  amount of cells carrying integration of kill-switch fusion sequences (PCR band intensity): reduced the amount of cells that carried integration of the kill-switch fusion sequences at the GAPDH locus
[1]
  apoptosis: resulted in apoptosis
[2]
  apoptosis: resulted in apoptosis
[3]
  apoptosis in unedited cells: did not induce apoptosis
